Measured values as given in ChEMBL document CHEMBL1828556, “Synthesis, hypnotic properties and molecular modeling studies of 1,2,7,9-tetraaza-spiro[4.5]dec-2-ene-6,8,10-triones” (Eur J Med Chem, 2011).

Assays:
Mus musculus [1] = experiment: Potentiation of sodium thiopental-induced hypnotic/sedative activity in Albino mouse assessed as sleeping time at 25 mg/kg, ip administered 1 hr prior challenge relative to control; type: functional; conditions: route intraperitoneal
Mus musculus [2] = experiment: Potentiation of sodium thiopental-induced hypnotic/sedative activity in Albino mouse assessed as time elapsed between injection of sodium thiopental and loss of righting reflex at 25 mg/kg, ip administered 1 hr prior challenge (Rvb =2.66 +/- 0.23 mins); type: functional; conditions: route intraperitoneal
Mus musculus [3] = experiment: Toxicity in Albino mouse assessed as mortality at 750 mg/kg, ip after 24 hrs; type: organism-based; design: dose 750 mg/kg, route intraperitoneal; conditions: in vivo
Mus musculus [4] = experiment: Toxicity in Albino mouse assessed as mortality at 250 mg/kg, ip after 24 hrs; type: organism-based; design: dose 250 mg/kg, route intraperitoneal; conditions: in vivo
Mus musculus [5] = experiment: Toxicity in Albino mouse assessed as toxic symptoms at 500 mg/kg, ip after 24 hrs; type: organism-based; design: dose 500 mg/kg, route intraperitoneal; conditions: in vivo
Mus musculus [6] = experiment: Toxicity in Albino mouse assessed as toxic symptoms at 250 mg/kg, ip after 24 hrs; type: organism-based; design: dose 250 mg/kg, route intraperitoneal; conditions: in vivo
Mus musculus [7] = experiment: Toxicity in Albino mouse assessed as toxic symptoms at 750 mg/kg, ip after 24 hrs; type: organism-based; design: dose 750 mg/kg, route intraperitoneal; conditions: in vivo
Mus musculus [8] = experiment: Toxicity in Albino mouse assessed as mortality at 500 mg/kg, ip after 24 hrs; type: organism-based; design: dose 500 mg/kg, route intraperitoneal; conditions: in vivo

Row | Structure (SMILES) | Activity (Mus musculus [1]) | Time (Mus musculus [2]) | Activity (Mus musculus [3]) | Activity (Mus musculus [4]) | Activity (Mus musculus [5]) | Activity (Mus musculus [6]) | Activity (Mus musculus [7]) | Activity (Mus musculus [8])
1 | CN1C(=O)N(C)C(=O)C2(C1=O)C(c1ccccc1)C(c1ccccc1)=NN2c1ccccc1 (stereo not drawn) | 1.3% | 3 min | – | – | – | – | – | –
2 | CN1C(=O)N(C)C(=O)C2(C1=O)C(c1ccccc1)C(c1ccccc1)=NN2c1cccc(Cl)c1 (stereo not drawn) | 192% | 1.85 min | – | – | – | – | – | –
3 | CN1C(=O)N(C)C(=O)C2(C1=O)C(c1ccc(Cl)cc1)C(c1ccccc1)=NN2c1ccccc1 (stereo not drawn) | 20% | 3.47 min | – | – | – | – | – | –
4 | CN1C(=O)N(C)C(=O)C2(C1=O)C(c1ccc(Cl)cc1)C(c1ccccc1)=NN2c1cccc(Cl)c1 (stereo not drawn) | 340.9% | 2.3 min | Non-toxic | Non-toxic | Non-toxic | Non-toxic | Non-toxic | Non-toxic
5 | CN1C(=O)N(C)C(=O)C2(C1=O)C(c1ccc(Cl)cc1Cl)C(c1ccccc1)=NN2c1ccccc1 (stereo not drawn) | 501.2% | 2.12 min | Non-toxic | Non-toxic | Non-toxic | Non-toxic | Non-toxic | Non-toxic
6 | CN1C(=O)N(C)C(=O)C2(C1=O)C(c1ccc(F)cc1)C(c1ccccc1)=NN2c1ccccc1 (stereo not drawn) | 358.6% | 2 min | Non-toxic | Non-toxic | Non-toxic | Non-toxic | Non-toxic | Non-toxic
7 | Cc1ccc(C2C(c3ccccc3)=NN(c3ccccc3)C23C(=O)N(C)C(=O)N(C)C3=O)cc1 (stereo not drawn) | 311.3% | 2.92 min | Non-toxic | Non-toxic | Non-toxic | Non-toxic | Non-toxic | Non-toxic
8 | COc1ccc(C2C(c3ccccc3)=NN(c3ccccc3)C23C(=O)N(C)C(=O)N(C)C3=O)cc1 (stereo not drawn) | -20.3% | 5.25 min | – | – | – | – | – | –
9 | CN1C(=O)N(C)C(=O)C2(C1=O)C(c1ccc(N(C)C)cc1)C(c1ccccc1)=NN2c1ccccc1 (stereo not drawn) | 299.4% | 2.91 min | Non-toxic | Non-toxic | Non-toxic | Non-toxic | Non-toxic | Non-toxic
10 | CN1C(=O)N(C)C(=O)C2(C1=O)C(c1cccs1)C(c1ccccc1)=NN2c1ccccc1 (stereo not drawn) | -25.8% | 1.79 min | – | – | – | – | – | –
11 | Cc1ccc(C2C(c3ccccc3)=NN(c3ccccc3)C23C(=O)N(C)C(=O)N(C)C3=O)o1 (stereo not drawn) | 904% | 2.66 min | Non-toxic | Non-toxic | Non-toxic | Non-toxic | Non-toxic | Non-toxic
